Reference: article PMC7316778 (Nature Communications, 2020)
Several values for one entry are separate records, joined by “and”; a condition that tells them apart may be missing. Equal values may be shown once. Read-outs that look alike come from different tables or passages of the source.

Legend:
Test in all cases: SelectScreen kinase assay
[1] = target: BLK (Homo sapiens, UniProt P51451)
Description: (§1) Selectivity profiling assays were performed by the Invitrogen SelectScreen™ Services. […] The concentration of ATP was selected to be equal to the KM, unless indicated otherwise.

[2] = target: GRK6 (Homo sapiens, UniProt P43250)
Description: as §1

[3] = target: T1, HUNK (Homo sapiens, UniProt P57058)
T1 sequence (P57058 1-714): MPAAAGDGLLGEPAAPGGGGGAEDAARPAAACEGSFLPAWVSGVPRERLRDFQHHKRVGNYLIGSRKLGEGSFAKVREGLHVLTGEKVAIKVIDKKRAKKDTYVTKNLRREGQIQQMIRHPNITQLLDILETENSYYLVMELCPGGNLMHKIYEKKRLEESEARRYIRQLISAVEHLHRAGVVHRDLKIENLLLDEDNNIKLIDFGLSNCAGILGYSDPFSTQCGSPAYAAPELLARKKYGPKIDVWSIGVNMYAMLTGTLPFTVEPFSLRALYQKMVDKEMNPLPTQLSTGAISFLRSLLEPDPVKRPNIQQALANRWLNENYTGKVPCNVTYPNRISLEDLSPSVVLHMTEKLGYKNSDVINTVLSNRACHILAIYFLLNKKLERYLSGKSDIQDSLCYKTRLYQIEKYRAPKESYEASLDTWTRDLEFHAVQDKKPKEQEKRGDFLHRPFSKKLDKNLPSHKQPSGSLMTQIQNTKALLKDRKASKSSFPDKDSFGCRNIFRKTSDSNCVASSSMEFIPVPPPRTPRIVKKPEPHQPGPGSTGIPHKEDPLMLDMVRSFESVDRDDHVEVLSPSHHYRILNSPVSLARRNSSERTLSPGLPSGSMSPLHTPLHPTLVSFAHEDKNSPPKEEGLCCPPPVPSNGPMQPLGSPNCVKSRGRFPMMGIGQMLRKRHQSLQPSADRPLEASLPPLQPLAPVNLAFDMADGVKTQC
Description: as §1

[4] = target: STK25 (YSK1) (Homo sapiens, UniProt O00506)
STK25 (YSK1), sequence (O00506 whole entry): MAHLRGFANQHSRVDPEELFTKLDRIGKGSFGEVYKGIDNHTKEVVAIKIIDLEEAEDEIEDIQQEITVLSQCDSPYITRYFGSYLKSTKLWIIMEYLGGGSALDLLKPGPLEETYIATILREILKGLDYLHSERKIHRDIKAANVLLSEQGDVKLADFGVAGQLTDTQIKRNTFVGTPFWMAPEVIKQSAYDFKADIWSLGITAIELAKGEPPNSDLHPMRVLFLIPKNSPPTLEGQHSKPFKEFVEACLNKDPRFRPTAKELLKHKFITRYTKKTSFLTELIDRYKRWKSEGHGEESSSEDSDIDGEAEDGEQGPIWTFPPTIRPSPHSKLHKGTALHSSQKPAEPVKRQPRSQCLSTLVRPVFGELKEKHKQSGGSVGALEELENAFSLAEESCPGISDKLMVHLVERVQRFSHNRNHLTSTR
Description: as §1

[5] = target: RPS6KA3 (RSK2) (Homo sapiens, UniProt P51812)
RPS6KA3 (RSK2), sequence (P51812 whole entry): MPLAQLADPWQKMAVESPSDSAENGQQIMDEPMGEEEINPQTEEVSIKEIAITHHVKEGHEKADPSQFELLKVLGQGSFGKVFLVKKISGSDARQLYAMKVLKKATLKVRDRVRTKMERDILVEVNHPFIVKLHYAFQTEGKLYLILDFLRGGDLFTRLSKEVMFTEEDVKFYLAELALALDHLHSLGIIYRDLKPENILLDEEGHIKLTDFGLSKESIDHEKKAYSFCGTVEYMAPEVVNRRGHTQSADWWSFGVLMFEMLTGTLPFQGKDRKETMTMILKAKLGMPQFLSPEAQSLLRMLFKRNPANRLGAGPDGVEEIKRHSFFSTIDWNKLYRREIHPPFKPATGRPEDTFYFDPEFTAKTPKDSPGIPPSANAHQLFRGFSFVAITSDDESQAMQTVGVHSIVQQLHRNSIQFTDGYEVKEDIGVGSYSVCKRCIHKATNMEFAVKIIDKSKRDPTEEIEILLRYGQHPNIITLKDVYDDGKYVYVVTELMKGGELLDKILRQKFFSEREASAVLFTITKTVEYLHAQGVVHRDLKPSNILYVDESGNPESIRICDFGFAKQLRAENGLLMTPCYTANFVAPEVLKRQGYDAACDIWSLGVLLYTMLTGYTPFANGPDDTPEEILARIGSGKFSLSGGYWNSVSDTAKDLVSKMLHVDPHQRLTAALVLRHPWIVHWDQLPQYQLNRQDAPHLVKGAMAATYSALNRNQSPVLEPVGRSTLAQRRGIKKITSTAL
Description: as §1

[6] = target: PHKG2 (Homo sapiens, UniProt P15735)
PHKG2, sequence (P15735 whole entry): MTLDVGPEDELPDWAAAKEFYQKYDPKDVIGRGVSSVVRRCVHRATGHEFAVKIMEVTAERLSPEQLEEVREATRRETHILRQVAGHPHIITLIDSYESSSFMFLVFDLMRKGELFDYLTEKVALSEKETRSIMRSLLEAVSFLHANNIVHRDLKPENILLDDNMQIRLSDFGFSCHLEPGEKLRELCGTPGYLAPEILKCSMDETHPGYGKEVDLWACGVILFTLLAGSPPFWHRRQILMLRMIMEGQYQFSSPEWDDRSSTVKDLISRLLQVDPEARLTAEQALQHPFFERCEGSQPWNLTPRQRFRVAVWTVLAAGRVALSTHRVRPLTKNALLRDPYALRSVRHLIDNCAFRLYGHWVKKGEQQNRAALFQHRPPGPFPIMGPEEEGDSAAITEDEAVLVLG
Description: as §1

[7] = target: PIP5K1B (Homo sapiens, UniProt O14986); settings: for Inhibition at 1 µM (%): PIP5K1B, Adapta, ATP 10
PIP5K1B, sequence (O14986 whole entry): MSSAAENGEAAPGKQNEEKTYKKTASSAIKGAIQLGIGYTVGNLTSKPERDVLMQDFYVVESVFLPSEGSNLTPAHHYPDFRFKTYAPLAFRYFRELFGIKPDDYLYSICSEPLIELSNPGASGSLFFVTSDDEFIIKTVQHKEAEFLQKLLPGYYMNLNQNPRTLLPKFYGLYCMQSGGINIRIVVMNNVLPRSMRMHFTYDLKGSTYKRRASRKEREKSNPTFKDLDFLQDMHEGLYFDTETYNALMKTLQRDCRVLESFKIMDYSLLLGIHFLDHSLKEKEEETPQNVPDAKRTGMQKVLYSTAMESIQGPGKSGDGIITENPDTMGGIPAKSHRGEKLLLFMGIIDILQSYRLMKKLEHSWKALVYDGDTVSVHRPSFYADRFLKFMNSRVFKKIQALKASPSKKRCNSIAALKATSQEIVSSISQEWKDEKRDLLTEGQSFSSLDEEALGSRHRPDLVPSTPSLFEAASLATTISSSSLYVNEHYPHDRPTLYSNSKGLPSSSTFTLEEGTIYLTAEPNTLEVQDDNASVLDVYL
Description: as §1

[8] = target: T2, DCAMKL1 (DCLK1) (Homo sapiens, UniProt O15075)
T2 sequence (O15075 1-740): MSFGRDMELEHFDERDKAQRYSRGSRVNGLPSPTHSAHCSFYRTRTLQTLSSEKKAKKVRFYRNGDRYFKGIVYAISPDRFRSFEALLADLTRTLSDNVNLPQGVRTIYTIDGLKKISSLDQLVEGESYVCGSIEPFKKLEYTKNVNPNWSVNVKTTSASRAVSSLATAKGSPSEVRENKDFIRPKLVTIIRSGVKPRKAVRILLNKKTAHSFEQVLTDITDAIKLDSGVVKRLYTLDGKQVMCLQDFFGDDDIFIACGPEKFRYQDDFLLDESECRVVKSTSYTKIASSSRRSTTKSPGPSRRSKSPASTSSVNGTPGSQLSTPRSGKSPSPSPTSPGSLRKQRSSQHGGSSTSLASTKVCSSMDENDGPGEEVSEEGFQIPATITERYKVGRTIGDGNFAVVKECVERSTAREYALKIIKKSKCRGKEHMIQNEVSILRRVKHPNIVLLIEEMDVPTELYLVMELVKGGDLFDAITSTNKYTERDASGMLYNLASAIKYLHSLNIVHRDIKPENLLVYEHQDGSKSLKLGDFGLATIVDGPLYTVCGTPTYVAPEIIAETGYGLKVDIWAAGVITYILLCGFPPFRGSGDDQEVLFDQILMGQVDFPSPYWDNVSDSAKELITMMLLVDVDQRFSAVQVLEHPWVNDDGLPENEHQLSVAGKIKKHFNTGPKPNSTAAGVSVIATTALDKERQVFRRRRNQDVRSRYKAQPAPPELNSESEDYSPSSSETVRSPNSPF
Description: as §1

[9] = target: LYN B (Homo sapiens, UniProt P07948); settings: for Inhibition at 1 µM (%): LYN B, ZLYTE, ATP Km app
LYN B, sequence (P07948 1-491 isoform P07948-2): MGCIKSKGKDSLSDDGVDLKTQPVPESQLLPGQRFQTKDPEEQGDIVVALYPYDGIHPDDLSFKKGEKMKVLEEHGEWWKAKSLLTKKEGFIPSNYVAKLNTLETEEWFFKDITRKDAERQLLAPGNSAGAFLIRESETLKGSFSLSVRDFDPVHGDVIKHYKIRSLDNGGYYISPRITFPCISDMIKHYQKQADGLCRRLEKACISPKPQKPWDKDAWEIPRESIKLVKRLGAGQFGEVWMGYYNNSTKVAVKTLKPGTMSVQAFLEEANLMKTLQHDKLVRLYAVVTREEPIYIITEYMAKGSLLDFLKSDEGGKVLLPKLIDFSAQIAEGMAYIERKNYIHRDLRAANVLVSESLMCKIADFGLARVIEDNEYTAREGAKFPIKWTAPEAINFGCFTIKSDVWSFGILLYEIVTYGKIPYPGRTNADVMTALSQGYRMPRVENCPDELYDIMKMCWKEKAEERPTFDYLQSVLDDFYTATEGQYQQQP
Description: as §1

[10] = target: ZAP70 (Homo sapiens, UniProt P43403); settings: 1 h, 1 μM WEL028, 1 h preincubation
Description: as §1

[11] = target: CDK1/cyclin B (Homo sapiens, UniProt P06493); settings: 1 h, 1 μM WEL028, 1 h preincubation
CDK1/cyclin B, sequence (P06493 whole entry): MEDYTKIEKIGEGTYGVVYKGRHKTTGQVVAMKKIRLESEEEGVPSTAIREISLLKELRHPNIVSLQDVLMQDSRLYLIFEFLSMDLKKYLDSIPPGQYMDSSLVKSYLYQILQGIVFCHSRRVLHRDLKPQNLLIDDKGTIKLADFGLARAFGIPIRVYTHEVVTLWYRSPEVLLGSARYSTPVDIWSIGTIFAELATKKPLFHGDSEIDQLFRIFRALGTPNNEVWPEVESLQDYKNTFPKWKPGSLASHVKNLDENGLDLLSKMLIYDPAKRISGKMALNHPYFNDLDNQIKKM
CDK1/cyclin B, sequence (P14635 whole entry partner): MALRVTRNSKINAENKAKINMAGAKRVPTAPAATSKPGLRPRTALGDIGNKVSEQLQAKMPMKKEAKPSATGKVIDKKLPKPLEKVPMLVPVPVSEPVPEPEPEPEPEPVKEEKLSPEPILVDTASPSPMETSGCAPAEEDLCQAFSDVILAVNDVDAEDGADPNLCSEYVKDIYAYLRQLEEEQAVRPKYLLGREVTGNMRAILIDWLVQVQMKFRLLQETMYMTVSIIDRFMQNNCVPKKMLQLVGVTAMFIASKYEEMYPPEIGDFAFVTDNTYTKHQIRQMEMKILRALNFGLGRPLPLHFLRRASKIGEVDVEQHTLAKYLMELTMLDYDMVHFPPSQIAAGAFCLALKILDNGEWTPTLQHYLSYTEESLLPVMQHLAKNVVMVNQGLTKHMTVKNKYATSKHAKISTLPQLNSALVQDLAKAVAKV
Description: as §1

[12] = 1 h, 1 μM WEL028, 1 h preincubation

BLK, sequence (P51451 whole entry): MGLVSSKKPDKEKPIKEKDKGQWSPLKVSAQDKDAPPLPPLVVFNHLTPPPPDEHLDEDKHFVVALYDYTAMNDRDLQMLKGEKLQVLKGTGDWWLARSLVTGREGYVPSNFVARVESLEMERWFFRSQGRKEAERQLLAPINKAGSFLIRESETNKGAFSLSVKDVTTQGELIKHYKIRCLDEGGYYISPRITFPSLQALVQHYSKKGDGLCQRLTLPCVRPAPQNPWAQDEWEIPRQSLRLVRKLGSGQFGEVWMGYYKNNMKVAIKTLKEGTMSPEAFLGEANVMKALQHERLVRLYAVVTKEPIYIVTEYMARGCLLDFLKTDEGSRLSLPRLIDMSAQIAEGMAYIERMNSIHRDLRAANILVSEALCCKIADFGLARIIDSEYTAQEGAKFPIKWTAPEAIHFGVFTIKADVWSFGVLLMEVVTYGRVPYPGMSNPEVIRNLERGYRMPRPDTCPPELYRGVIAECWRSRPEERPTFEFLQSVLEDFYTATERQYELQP
GRK6, sequence (P43250 whole entry): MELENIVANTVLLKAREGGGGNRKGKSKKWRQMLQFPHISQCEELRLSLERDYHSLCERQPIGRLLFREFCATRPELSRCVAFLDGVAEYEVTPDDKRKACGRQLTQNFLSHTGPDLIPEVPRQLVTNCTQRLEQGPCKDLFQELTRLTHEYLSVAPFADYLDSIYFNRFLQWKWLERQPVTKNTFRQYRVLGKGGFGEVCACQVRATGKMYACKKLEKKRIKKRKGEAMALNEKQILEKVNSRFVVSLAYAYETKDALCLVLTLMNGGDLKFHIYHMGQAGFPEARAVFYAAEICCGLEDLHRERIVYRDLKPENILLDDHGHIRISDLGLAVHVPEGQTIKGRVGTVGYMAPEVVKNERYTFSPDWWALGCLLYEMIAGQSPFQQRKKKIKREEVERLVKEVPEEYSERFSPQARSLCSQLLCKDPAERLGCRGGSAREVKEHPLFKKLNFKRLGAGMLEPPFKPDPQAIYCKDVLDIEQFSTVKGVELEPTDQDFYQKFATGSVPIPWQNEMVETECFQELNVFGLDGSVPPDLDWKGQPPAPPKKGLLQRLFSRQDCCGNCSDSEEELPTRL

For C#CCOc1ccc(Nc2ncc(Cl)c(Nc3ccccc3NC(=O)C=C)n2)c(OC)c1 [Compound 6], the inhibition at 1 µM [1, 12] was 0%, the “Inhibition at 1 µM (%)” value ([1]; BLK, 1 µM, ZLYTE, ATP Km app, listed as WEL028, 1 µM) was 4% and -5% and the inhibition at 1 µM ([2]; 1 h) was 0%. For the same compound, the inhibition at 1 µM ([2]; read-out: Inhibition at 1 µM (%)) was 0%, the inhibition at 1 µM [3, 12] was 20% and the “Inhibition at 1 µM (%)” value ([3]; HUNK, 1 µM, LanthaScreen Binding, listed as WEL028, 1 µM) was 21%. The inhibition at 1 µM ([3]; read-out: Inhibition at 1 µM (%), HUNK, 1 µM, LanthaScreen Binding) was 19%, the “Inhibition at 1 µM (%)” value ([4]; 1 µM, ZLYTE, ATP Km app) was 15% and the inhibition at 1 µM [4, 12] was 5%. For the same compound, the “Inhibition at 1 µM (%)” value ([5]; 1 µM, ZLYTE, ATP Km app, listed as WEL028, 1 µM) was 12%, the inhibition at 1 µM [5, 12] was 13% and the inhibition at 1 µM ([5]; read-out: Inhibition at 1 µM (%), 1 µM, ZLYTE, ATP Km app) was 13%. For the same compound, the inhibition at 1 µM [6, 12] was 0%, the “Inhibition at 1 µM (%)” value ([6]; PHKG2, 1 µM, ZLYTE, ATP Km app) was 11% and the inhibition at 1 µM [7, 12] was -11%. The “Inhibition at 1 µM (%)” value [7] was -13%, the “Inhibition at 1 µM (%)” value ([7]; listed as WEL028, 1 µM) was -9% and the “Inhibition (%)” value ([8]; 1 μM WEL028, 1 h preincubation) was 4%. The “Inhibition at 1 µM (%)” value ([8]; DCAMKL1 (DCLK1), 1 µM, ZLYTE, ATP Km app, listed as WEL028, 1 µM) was 5%, the inhibition at 1 µM ([8]; read-out: Inhibition at 1 µM (%), DCAMKL1 (DCLK1), 1 µM, ZLYTE, ATP Km app) was 3% and the inhibition at 1 µM [9, 12] was 1%. For the same compound, the “Inhibition at 1 µM (%)” value [9] was 3%, the “Inhibition at 1 µM (%)” value ([9]; listed as WEL028, 1 µM) was 0% and the inhibition at 1 µM [10] was 2%. It also gave an inhibition at 1 µM [11] of 1%.
